{"source": "patent US10440955B2", "about": "“Methods comprising a biocidal polyamine” (Curza Global, LLC, priority 2013, dated 2019)", "key": {"A. baumannii": {"tested_on": "A. baumannii", "test": "MIC, 96-well CAMHB, 10^5 to 10^2 CFU/mL in 24 hours", "type": "cell-based, Acinetobacter baumannii", "conditions": "for MIC: Acinetobacter baumannii", "description": "To determine the MIC of polyamine compounds, the protocol described herein was used.\nIn brief, a 0.5 McFarland of each bacterial isolate was made. A 0.5 McFarland is a measure of turbidity in a liquid sample that contains approximately 1×10^∧8 CFU/mL. The 0.5 McFarland standard was diluted in cation adjusted Mueller Hinton Broth (CAMHB), and 50 μL of broth were added to a well of a 96-well plate. In addition, 50 μL of CAMHB that contained a desired concentration of antimicrobial were also added to the well for a final volume of 100 μL and a final concentration of approximately 5×10^4 CFU/well (which equated to approximately 5×10^5 CFU/mL). Each well contained a desired amount of polyamine compound in order to experimentally determine the MIC. Each 96-well plate was incubated at 37° C. for 24 hours. The contents of each well were plated on tryptic soy agar (TSA). TSA plates were incubated for 37° C. for 24 hours after which the number of CFU were counted and used to calculate the CFU/mL that remained after exposure to varying concentrations of compound. This procedure was repeated n=8 times for each concentration of antimicrobial.\nA 0.5 McFarland of A. baumannii is made. A 0.5 McFarland is a measure of turbidity in a liquid sample that contains approximately 7.5×10^7 CFU/mL. The 0.5 McFarland standard is diluted in CAMHB and 50 μL of broth is added to a well of a 96-well plate. In addition, 50 μL of CAMHB that contains a desired concentration of antimicrobial is added to the well for a final volume of 100 μL and a final concentration of approximately 5×10^4 CFU/well (which equates to approximately 5×10^5 CFU/mL). Each well contains a desired amount of CZ compound in order to experimentally determine the MIC. Each 96-well plate is incubated at 37° C. for 24 hours. The contents of each well is plated on tryptic soy agar (TSA). TSA plates is incubated at 37° C. for 24 hours after which the number of CFUs is counted and used to calculate the CFU/mL that remain after exposure to varying concentrations of compound. This procedure is repeated n=8 times for each concentration of antimicrobial. […]"}, "A. baumannii biofilms": {"tested_on": "A. baumannii biofilms", "test": "EBEC, high number biofilms on PEEK membranes, 10^9 to 10^2 CFU/PEEK membrane in 24 hours", "type": "cell-based, Acinetobacter baumannii", "description": "In addition to determining the MIC and the MBEC of polyamine compounds against planktonic bacteria and low number biofilms, our group wanted to determine the efficacy of polyamine compounds against high number biofilms. To do so, biofilms were grown on the surface of polyetheretherketone (PEEK) membranes using a membrane biofilm reactor. This reactor is similar to the CDC biofilm reactor, but rather than growing biofilms on coupon surfaces, the reactor was modified to hold PEEK membranes. In short, to grow biofilms within this system, 500 mL of brain heart infusion (BHI) broth were inoculated with 1 mL of a 0.5 McFarland. The reactor was placed on a hot plate set at 34° C. and the bacteria were grown under batch conditions for 24 hours. Following this protocol, biofilms typically grow to 10^9 CFU/PEEK membrane. […] A solution of 10% BHI was then flowed through the reactor at a rate of 6.94 mL/min for an additional 24 hours. PEEK membranes were then removed and placed into 2 mL of CAMHB that contained a desired concentration of polyamine compound or antibiotic. The EBEC was defined as the concentration of antimicrobial required to reduce a biofilm from approximately 10^9 CFU/PEEK membrane to approximately 10^2 CFU/PEEK membrane in a 24-hour period.\nIn addition to determining the MIC and the MBEC of compounds against planktonic bacteria and low number biofilms, the efficacy of the compounds of the invention against high number biofilms is determined. To do so, biofilms are grown on the surface of PEEK membranes using a membrane biofilm reactor (Williams, D. L., Haymond, B. S. & Bloebaum, R. D. Use of delrin plastic in a modified CDC biofilm reactor. Res J Microbiol 6, 425-429 (2011); Williams, D. L., Woodbury, K. L., Haymond, B. S., Parker, A. E. & Bloebaum, R. D. A modified CDC biofilm reactor to produce mature biofilms on the surface of PEEK membranes for an in vivo animal model application. Curr Microbiol 62, 1657-1663 (2011); Williams, D. L. et al., In Vivo Efficacy of a Silicone—Cationic Steroid Antimicrobial Coating to Prevent Implant-Related Infection. Biomaterials 33, 8641-8656 (2012); Williams, D. L. et al., Experimental model of biofilm implant-related osteomyelitis to test combination biomaterials using biofilms as initial inocula. J Biomed Mat Res A 100, 1888-1900 (2012)). This reactor is similar to the CDC biofilm reactor, but rather than growing biofilms on coupon surfaces, the reactor was modified to hold PEEK membranes. In short, to grow biofilms within this system, 500 mL of brain heart infusion (BHI) broth is inoculated with 1 mL of a 0.5 McFarland. The reactor is placed on a hot plate set at 34° C. and the bacteria grown under batch conditions for 24 hours. A solution of 10% BHI will then be flowed through the reactor at a rate of 6.94 mL/min for an additional 24 hours. Following this protocol, biofilms typically grow to 10^9 CFU/PEEK membrane. PEEK membranes is removed and placed into 2 mL of CAMHB that contain a desired concentration of the test compound. The EBEC is defined as the concentration of antimicrobial required to reduce a biofilm from approximately 10^9 CFU/PEEK membrane to approximately 10^2 CFU/PEEK membrane in a 24-hour period.\nEBEC data were collected to determine the efficacy of CZ-52, CZ-58 and traditional antibiotics against high number biofilms containing approximately 10^9 CFU grown on the surface of a polyetheretherketone (PEEK) membrane. […] In contrast, at 250 μg/mL CZ-52 was able to reduce MRSA biofilms by greater than 7 log10 units in a 24-hour period. Although the MIC of CZ-58 was lower against MRSA compared to A. baumannii, CZ-58 had greater activity against biofilms of A. baumannii than against MRSA biofilms in the EBEC assay. […] Although the MIC of CZ-58 was “high” compared to MICs of traditional antibiotics, the efficacy against biofilms was promising."}}, "note": "Where a name gives a salt, the structure may show the parent alone. Read-outs that look alike come from different tables or passages of the source."}
{"molecule": "CC(C)CNCCCNCCCNCc1cc(CNCCCNCCCNCC(C)C)cc(-c2ccccc2)c1", "note": "[CZ-86, N^1,N^1′-([1,1′-biphenyl]-3,5-diylbis(methylene))bis(N^3-(3-(isobutylamino)propyl)propane-1,3-diamine), hydrochloride salt]", "values": [{"measurement": "MIC", "setting": "A. baumannii; read-out: MIC (A. bumannii)", "value": "< 50", "unit": "µM"}]}
{"molecule": "NCCCNCCCNCc1ccccc1", "note": "[CZ-7, benzylnorspermidine]", "values": [{"measurement": "EBEC μg/mL (μM) A. baumannii", "setting": "A. baumannii biofilms; Table 4", "value": ">10,000 μg/mL"}, {"measurement": "EBEC μg/mL (μM) A. baumannii", "setting": "A. baumannii biofilms; Table 4, value in parentheses", "value": "(>45,180) μM"}, {"measurement": "MIC", "setting": "A. baumannii; Table 3A c3, read-out: MICs (μg/mL): A. baumannii", "value": "> 500", "unit": "µg/mL"}, {"measurement": "MIC", "setting": "A. baumannii; Table 4, value in parentheses, read-out: MIC μg/mL (μM) A. baumannii", "value": "> 2260", "unit": "µM"}, {"measurement": "MIC", "setting": "A. baumannii; Table 4, read-out: MIC μg/mL (μM) A. baumannii", "value": "> 500", "unit": "µg/mL"}]}
{"molecule": "NCCCNCCCNCc1cc(CNCCCNCCCN)cc(-c2ccccc2)c1", "note": "[CZ-58, N^1,N^1′-([1,1′-biphenyl]-3,5-diylbis(methylene))bis(N^3-(3-ammoniopropyl)propane-1,3-diaminium) chloride]", "values": [{"measurement": "EBEC μg/mL (μM) A. baumannii", "setting": "A. baumannii biofilms; Table 4", "value": 400, "unit": "µg/mL"}, {"measurement": "MIC", "setting": "A. baumannii; read-out: MIC (A. bumannii)", "value": "50 to 100", "unit": "µM"}]}
{"molecule": "Polymyxin B sulfate [reference compound]", "values": [{"measurement": "EBEC μg/mL (μM) A. baumannii", "setting": "A. baumannii biofilms; Table 4", "value": "1,000 μg/mL"}, {"measurement": "EBEC μg/mL (μM) A. baumannii", "setting": "A. baumannii biofilms; Table 4, value in parentheses", "value": "(722) μM"}, {"measurement": "MICs (μg/mL): A. baumannii", "setting": "A. baumannii; Table 3A c3", "value": 2, "unit": "µg/mL"}, {"measurement": "MIC μg/mL (μM) A. baumannii", "setting": "A. baumannii; Table 4", "value": 1, "unit": "µg/mL"}, {"measurement": "MIC μg/mL (μM) A. baumannii", "setting": "A. baumannii; Table 4, value in parentheses", "value": "(0.7) μM"}]}
{"molecule": "NCCCNCCCNCc1cccc(CNCCCNCCCN)c1", "note": "[CZ-25, N^1,N^1′-(1,3-phenylenebis(methylene))bis(N3-(3-ammoniopropyl)propane-1,3-diaminium) chloride]", "values": [{"measurement": "EBEC μg/mL (μM) A. baumannii", "setting": "A. baumannii biofilms; Table 4", "value": "~7,500 μg/mL"}, {"measurement": "MIC", "setting": "A. baumannii; read-out: MIC (A. bumannii)", "value": "> 100", "unit": "µM"}]}
{"molecule": "NCCCNCCCNCc1cc(CNCCCNCCCN)cc(CNCCCNCCCN)c1", "note": "[CZ-52, N^1,N^1′,N^1″-(benzene-1,3,5-triyltris(methylene))tris(N^3-(3-aminopropyl)propane-1,3-diamine), hydrochloride salt]", "values": [{"measurement": "EBEC μg/mL (μM) A. baumannii", "setting": "A. baumannii biofilms; Table 4", "value": "~7,000 μg/mL"}, {"measurement": "EBEC μg/mL (μM) A. baumannii", "setting": "A. baumannii biofilms; Table 4, value in parentheses", "value": "(~14,000) μM"}]}
